Results as given in patent US7317007B2, “Benzothiazole derivatives with activity as adenosine receptor ligands” (Hoffmann-La Roche Inc., priority 2000, dated 2008).
Where a name gives a salt, the structure may show the parent alone.

Tested on: not given
Experiment: not given
Details: not given

SMILES | melting point
COc1ccc(-c2csc(N(C)C)n2)c2sc(NC(=O)c3ccc(F)cc3)nc12 [Example 219, N-[7-(2-Dimethylamino-thiazol-4-yl)-4-methoxy-benzothiazol-2-yl]-4-fluoro-benzamide] | 218 to 220 °C
COc1ccc(-c2csc(N3CCOCC3)n2)c2sc(NC(=O)c3ccc(F)cc3)nc12 [Example 216, 4-Fluoro-N-[4-methoxy-7-(2-morpholin-4-yl-thiazol-4-yl)-benzothiazol-2-yl]-benzamide] | 225 to 227 °C
COc1ccc(-c2cccs2)c2sc(NC(=O)c3ccc(CCl)cc3)nc12 [Example 231, 4-Chloromethyl-N-(4-methoxy-7-thiophen-2-yl-benzothiazol-2-yl)-benzamide] | 183 to 209 °C (dec.)
COc1ccc(-c2csc(N)n2)c2sc(NC(=O)c3ccc(F)cc3)nc12 [Example 217, N-[7-(2-Amino-thiazol-4-yl)-4-methoxy-benzothiazol-2-yl]-4-fluoro-benzamide] | 262 to 264 °C
COc1ccc(-c2csc(-c3ccc(C)nc3)n2)c2sc(NC(=O)c3ccc(CCl)cc3)nc12 [Example 228, 4-Chloromethyl-N-{4-methoxy-7-[2-(6-methyl-pyridin-3-yl)-thiazol-4-yl]-benzothiazol-2-yl}-benzamide] | 230 to 250 °C
COc1ccc(-c2csc(C)n2)c2sc(NC(=O)c3ccc(F)cc3)nc12 [Example 224, 4-Fluoro-N-[4-methoxy-7-(2-methyl-thiazol-4-yl)-benzothiazol-2-yl]-benzamide] | 217 to 219 °C
COc1ccc(-c2ccc(C)s2)c2sc(NC(=O)c3ccc(F)cc3)nc12 [Example 225, 4-Fluoro-N-[4-methoxy-7-(5-methyl-thiophen-2-yl)-benzothiazol-2-yl]-benzamide] | 192 to 196 °C (dec.)
COc1ccc(-c2csc(NC(c3ccccc3)(c3ccccc3)c3ccccc3)n2)c2sc(NC(=O)c3ccc(CCl)cc3)nc12 [Example 229, 4-Chloromethyl-N-{4-methoxy-7-[2-(trityl-amino)-thiazol-4-yl]-benzothiazol-2-yl}-benzamide] | 163 °C (dec.)

Second part, the compound after the results:

melting point | SMILES
140 to 145 °C | COCCN(C)Cc1ccc(C(=O)Nc2nc3c(OC)ccc(-c4csc(C)n4)c3s2)cc1 [Example 242, 4-{[(2-Methoxy-ethyl)-methyl-amino]-methyl}-N-[4-methoxy-7-(2-methyl-thiazol-4-yl)-benzothiazol-2-yl]-benzamide]
130 to 146 °C | COc1ccc(-c2ccc(C)s2)c2sc(NC(=O)c3ccc(CCl)cc3)nc12 [Example 234, 4-Chloromethyl-N-[4-methoxy-7-(5-methyl-thiophen-2-yl)-benzothiazol-2-yl]-benzamide]
140 to 145 °C | COc1ccc(-c2csc(C)n2)c2sc(NC(=O)c3ccc(CCl)cc3)nc12 [Example 233, 4-Chloromethyl-N-[4-methoxy-7-(2-methyl-thiazol-4-yl)-benzothiazol-2-yl]-benzamide]
195 to 215 °C | COc1ccc(-c2csc(N3CCCC3)n2)c2sc(NC(=O)c3ccnc(C)c3)nc12 [Example 255, N-[4-Methoxy-7-(2-pyrrolidin-1-yl-thiazol-4-yl)-benzothiazol-2-yl]-2-methyl-isonicotinamide]
175 to 182 °C (dec.) | COc1ccc(-c2cccs2)c2sc(NC(=O)N3CCOCC3)nc12 [Example 263, Morpholine-4-carboxylic acid (4-methoxy-7-thiophen-2-yl-benzothiazol-2-yl)-amide]
85 to 95 °C | COCCN(C)Cc1ccc(C(=O)Nc2nc3c(OC)ccc(-c4csc(N(C)C)n4)c3s2)cc1 [Example 239, N-[7-(2-Dimethylamino-thiazol-4-yl)-4-methoxy-benzothiazol-2-yl]-4-{[(2-methoxy-ethyl)-methyl-amino]-methyl}-benzamide]
179 to 181 °C | COc1ccc(-c2csc(C)n2)c2sc(NC(=O)N3CCN(C)CC3)nc12 [Example 267, 4-Methyl-piperazine-1-carboxylic acid [4-methoxy-7-(2-methyl-thiazol-4-yl)-benzothiazol-2-yl]-amide]
119 to 128 °C | COCCN(C)Cc1ccc(C(=O)Nc2nc3c(OC)ccc(-c4csc(NC(c5ccccc5)(c5ccccc5)c5ccccc5)n4)c3s2)cc1 [Example 236, 4-{[(2-Methoxy-ethyl)-methyl-amino]-methyl}-N-{4-methoxy-7-[2-(trityl-amino)-thiazol-4-yl]-benzothiazol-2-yl}-benzamide]
195 to 201 °C | COc1ccc(-c2csc(-c3ccccn3)n2)c2sc(NC(=O)c3ccc(CCl)cc3)nc12 [Example 232, 4-Chloromethyl-N-[4-methoxy-7-(2-pyridin-2-yl-thiazol-4-yl)-benzothiazol-2-yl]-benzamide]
173 to 180 °C (dec.) | COc1ccc(-c2ccc(C)s2)c2sc(NC(=O)N3CCOCC3)nc12 [Example 264, Morpholine-4-carboxylic acid [4-methoxy-7-(5-methyl-thiophen-2-yl)-benzothiazol-2-yl]-amide]
150 to 170 °C | COc1ccc(-c2csc(N3CCN(C)CC3)n2)c2sc(NC(=O)N3CCOCC3)nc12 [Example 261, Morpholine-4-carboxylic acid {4-methoxy-7-[2-(4-methyl-piperazin-1-yl)-thiazol-4-yl]-benzothiazol-2-yl}-amide]
227 to 234 °C | COc1ccc(-c2csc(N3CCCCC3)n2)c2sc(NC(=O)N3CCOCC3)nc12 [Example 262, Morpholine-4-carboxylic acid [4-methoxy-7-(2-piperidin-1-yl-thiazol-4-yl)-benzothiazol-2-yl]-amide]

Biological target: T1, human adenosine A2A receptor (Homo sapiens, UniProt P29274)
T1 construct: expressed in transfected cells; host or cells: CHO cells, Semliki Forest virus expression system; washed membrane pellet used
Experiment: [3H]-SCH-58261 binding assay at the human adenosine A2A receptor
Details: read-out: pKi value (converted)
Protocol: Human Adenosine A2A Receptor
The human adenosine A2A receptor was recombinantly expressed in chinese hamster ovary (CHO) cells using the semliki forest virus expression system. Cells were harvested, washed twice by centrifugation, homogenised and again washed by centrifugation. The final washed membrane pellet was suspended in a Tris (50 mM) buffer containing 120 mM NaCl, 5 mM KCl, 2 mM CaCl2 and 10 mM MgCl2 (pH 7.4) (buffer A). The [^3H]-SCH-58261 (Dionisotti et al., 1997, Br J Pharmacol 121, 353; 1 nM) binding assay was carried out in 96-well plates in the presence of 2.5 μg of membrane protein, 0.5 mg of Ysi-poly-1-lysine SPA beads and 0.1 U adenosine deaminase in a final volume of 200 μl of buffer A. Non-specific binding was defined using xanthine amine congener (XAC; 2 μM). Compounds were tested at 10 concentrations from 10 μM-0.3 nM. All assays were conducted in duplicate and repeated at least two times. Assay plates were incubated for 1 hour at room temperature before centrifugation and then bound ligand determined using a Packard Topcount scintillation counter. IC50 values were calculated using a non-linear curve fitting program and Ki values calculated using the Cheng-Prussoff equation.

T1 sequence (P29274 whole entry): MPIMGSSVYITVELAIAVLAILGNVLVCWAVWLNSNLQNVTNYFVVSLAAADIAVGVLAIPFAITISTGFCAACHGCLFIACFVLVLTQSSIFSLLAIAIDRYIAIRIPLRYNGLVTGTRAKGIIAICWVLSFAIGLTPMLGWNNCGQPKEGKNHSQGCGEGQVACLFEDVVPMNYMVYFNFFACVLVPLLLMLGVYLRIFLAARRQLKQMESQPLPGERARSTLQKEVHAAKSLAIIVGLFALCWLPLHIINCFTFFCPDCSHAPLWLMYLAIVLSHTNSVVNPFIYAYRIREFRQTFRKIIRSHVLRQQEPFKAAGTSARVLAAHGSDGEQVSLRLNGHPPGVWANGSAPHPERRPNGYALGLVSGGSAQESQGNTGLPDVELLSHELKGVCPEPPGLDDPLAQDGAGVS

SMILES | Ki
COc1ccc(-c2ccccc2)c2sc(NC(=O)N3CCOCC3)nc12 [Example 157, Morpholine-4-carboxylic acid (4-methoxy-7-phenyl-benzothiazol-2-yl)-amide] | 1.26 nM
COc1ccc(-c2ccnc(C)c2)c2sc(NC(=O)c3ccc(C)s3)nc12 [Example 61, 5-Methyl-thiophene-2-carboxylic acid [4-methoxy-7-(2-methyl-pyridin-4-yl)-benzothiazol-2-yl]-amide] | 1.26 nM
COc1ccc(-c2ccccc2)c2sc(NC(=O)c3ccc(CNCCO)cc3)nc12 [Example 92, 4-[(2-Hydroxy-ethylamino)-methyl]-N-(4-methoxy-7-phenyl-benzothiazol-2-yl)-benzamide hydrochloride salt (1:1)] | 1.26 nM
COc1ccc(-c2ccccc2)c2sc(NC(=O)c3ccc(CNCc4cccnc4)cc3)nc12 [Example 107, N-(4-Methoxy-7-phenyl-benzothiazol-2-yl)-4-{[(pyridin-3-ylmethyl)-amino]-methyl}-benzamide hydrochloride salt (1:2)] | 1.58 nM
COc1ccc(-c2ccccc2)c2sc(NC(=O)c3ccc(CO)cc3)nc12 [Example 17, 4-Hydroxymethyl-N-(4-methoxy-7-phenyl-benzothiazol-2-yl)-benzamide] | 0.501 nM
COc1ccc(-c2ccccc2)c2sc(NC(=O)c3ccncc3)nc12 [Example 36, N-(4-Methoxy-7-phenyl-benzothiazol-2-yl)-isonicotinamide] | 0.794 nM
COc1ccc(-c2cccc(N)c2)c2sc(NC(=O)c3ccc(C)s3)nc12 [Example 62, 5-Methyl-thiophene-2-carboxylic acid [7-(3-amino-phenyl)-4-methoxy-benzothiazol-2-yl]-amide] | 0.794 nM

Next, values leading:

Ki | SMILES
3.16 nM | CCOCCN(C)Cc1ccc(C(=O)Nc2nc3c(OC)ccc(N4CCOCC4)c3s2)cc1 [Example 304, 4-{[(2-Ethoxy-ethyl)-methyl-amino]-methyl}-N-(4-methoxy-7-morpholin-4-yl-benzothiazol-2-yl)-benzamide]
3.16 nM | COc1ccc(N2CCOCC2)c2sc(NC(=O)C3CCN(C(C)=O)CC3)nc12 [Example 327, 1-Acetyl-piperidine-4-carboxylic acid (4-methoxy-7-morpholin-4-yl-benzothiazol-2-yl)-amide]
0.794 nM | COc1ccc(N2CCOCC2)c2sc(NC(=O)c3ccc(Cn4ccnc4C)cc3)nc12 [Example 308, N-(4-Methoxy-7-morpholin-4-yl-benzothiazol-2-yl)-4-(2-methyl-imidazol-1-yl-methyl)-benzamide]
3.16 nM | COc1ccc(N2CCOCC2)c2sc(NC(=O)c3ccc(CN4CCN(C)CC4)cc3)nc12 [Example 309, N-(4-Methoxy-7-morpholin-4-yl-benzothiazol-2-yl)-4-(4-methyl-piperazin-1-yl-methyl)-benzamide]
1.26 nM | COc1ccc(-c2csc(-c3ccc(C)nc3)n2)c2sc(NC(=O)N3CCOCC3)nc12 [Example 258]
3.16 nM | COCCN(C)Cc1cccc(C(=O)Nc2nc3c(OC)ccc(N4CCOCC4)c3s2)c1 [Example 287, 3-{[(2-Methoxy-ethyl)-methyl-amino]-methyl}-N-(4-methoxy-7-morpholin-4-yl-benzothiazol-2-yl)-benzamide]
1.58 nM | CNCc1ccc(C(=O)Nc2nc3c(OC)ccc(N4CCOCC4)c3s2)cc1 [Example 292, N-(4-Methoxy-7-morpholin-4-yl-benzothiazol-2-yl)-4-methylaminomethyl-benzamide]
2.51 nM | COCCNCc1cc(C(=O)Nc2nc3c(OC)ccc(N4CCOCC4)c3s2)ccc1Cl [Example 282, 4-Chloro-3-[(2-methoxy-ethylamino)-methyl]-N-(4-methoxy-7-morpholin-4-yl-benzothiazol-2-yl)-benzamide]
